Measured values: patent publication US5945451A, “Fluorobutenyl(thio)ethers used as pesticides” (Bayer Aktiengesellschaft, priority 1994, dated 1999)

Experiments:
Meloidogyne incognita = assay: Critical concentration test/nematodes; assay type: in vivo; settings: 20 ppm in soil; lettuce root galls after three weeks
Description: Critical concentration test/nematodes
Test nematode: Meloidogyne incognita
Solvent: 3 parts by weight of acetone
(§1) Emulsifier: 1 part by weight of alkylaryl polyglycol ether
To produce a suitable preparation of active compound, 1 part by weight of active compound is mixed with the stated amount of solvent, the stated amount of emulsifier is added and the concentrate is diluted with water to the desired concentration.
The preparation of active compound is intimately mixed with soil which is severely infested with the test nematodes. The concentration of the active compound in the preparation is of practically no importance, only the amount of active compound per unit volume of soil, which is given in ppm (=mg/l), being decisive. The treated soil is transferred into pots, lettuce is sown in, and the pots are kept at a greenhouse temperature of 25° C.
After three weeks, the lettuce roots are checked for infestation with nematodes (root galls) and the degree of efficacy of the active compound in % is determined. The degree of efficacy is 100% when infestation is avoided completely and 0% when the infestation level is just as high as in the control plants in untreated, but equally infested, soil.

[1] = system: caterpillars of the diamond-back moth (Plutella maculipennis); assay: Plutella test; assay type: in vivo; settings: 168 h, after 7 days, dipped cabbage leaves, read-out: destruction
Description: (§2) Solvent: 7 parts by weight of dimethylformamide
as §1
(§3) To produce a suitable preparation of active compound, 1 part by weight of active compound is mixed with the stated amount of solvent and the stated amount of emulsifier, and the concentrate is diluted with water to the desired concentration.
Cabbage leaves (Brassica oleracea) are treated by being dipped into the preparation of active compound of the desired concentration and are infested with caterpillars of the diamond-back moth (Plutella maculipennis) while the leaves are still moist.
(§4) After the desired period of time, the destruction in % is determined. 100% means that all the caterpillars have been killed; 0% means that none of the caterpillars have been killed.

[2] = system: mustard beetle larvae (Phaedon cochleariae); assay: Phaedon larvae test; assay type: in vivo; settings: 168 h, after 7 days, dipped cabbage leaves, read-out: destruction
Description: as §2, §1, §3
After the desired period of time, the destruction in % is determined. 100% means that all the beetle larvae have been killed; 0% means that none of the beetle larvae have been killed.

[3] = system: larvae of the green rice leafhopper (Nephotettix cincticeps); assay: Nephotettix test; assay type: in vivo; settings: 144 h, read-out: destruction
Description: as §2, §1, §3
Rice seedlings (Oryzae sativa) are treated by being dipped into the preparation of active compound of the desired concentration and are infested with larvae of the green rice leafhopper (Nephotettix cincticeps) while the seedlings are still moist.
After the desired period of time, the destruction in % is determined. 100% means that all the leafhoppers have been killed; 0% means that none of the leafhoppers have been killed.

[4] = log p, octanol/water partition coefficient determined by reversed-phase HPLC; assay type: physicochemical; settings: for chromatographic logP: pH not stated; for chromatographic logD: pH 2
Excerpt: * log p = Logarithm of the partition coefficient p of the substance
between the solvents octanol and water, determined experimentally by mean

Lucilia cuprina larvae = assay: Blowfly larvae test; assay type: in vivo; settings: after 24 hours, horse meat, read-out: destruction
Description: Test animals: Lucilia cuprina larvae
Solvent: 35 parts by weight of ethylene glycol monomethyl ether
Emulsifier: 35 parts by weight of nonylphenol polyglycol ether
For the purpose of producing a suitable formulation, 3 parts by weight of the active compound are mixed with 7 parts of the abovementioned mixture of solvent and emulsifier, and the emulsion concentrate thus obtained is diluted with water to the particular concentration desired.
About 20 Lucilia cuprina larvae are introduced into a test tube which contains approx. 1 cm^3 of horse meat and 0.5 ml of the preparation of active compound to be tested. After 24 hours, the efficacy of the preparation of active compound is determined. 100% means that all blowfly larvae have been killed; 0% means that none of the blowfly larvae have been killed.

[5] = system: tobacco budworm (Heliothis virescens); assay: whole plant or invertebrate; assay type: in vivo; settings: 168 h, read-out: destruction
Description: as §2, §1, §3
Soya bean shoots (Glycine max) are treated by being dipped into the preparation of active compound of the desired concentration and are infested with tobacco budworm (Heliothis virescens) while the leaves are still moist.
as §4

In the case of O=C(CSCCC(F)=C(F)F)NC(Cc1ccccc1)C(=O)O (stereo not drawn) [Example I-17], the degree of efficacy (Meloidogyne incognita) is reported as 100%.
Molecule CC(C)N(C(=O)CSCCC(F)=C(F)F)c1ccc(Cl)c(Cl)c1 [Example I-13] has a mortality at 0.1 % [1] of 100% and a mortality at 0.1 % [2] of 100%.
Molecule CC(C)N(C(=O)CSCCC(F)=C(F)F)c1cccc(F)c1 [Example I-14] has a mortality at 0.1 % [1] of 100% and a mortality at 0.1 % [3] of 100%.
In the case of O=C(CSCCC(F)=C(F)F)NCc1ccc(Cl)cc1 [Example I-19], the chromatographic logP [4] is reported as 2.94.
NC(=O)CSCCC(F)=C(F)F [Example I-22] showed a chromatographic logD [4] of 1.22.
Work on O=C(Nc1ccc(Cl)c(Cl)c1)C(SCCC(F)=C(F)F)c1ccccc1 (stereo not drawn) [Example I-46] yielded a chromatographic logD [4] of 4.59.
With O=C(CSCCC(F)=C(F)F)OCc1ccccc1 [Example I-2] the degree of efficacy (Meloidogyne incognita) was 100%.
CN(C)C(=O)CSCCC(F)=C(F)F [Example I-9] showed a mortality at 1000 ppm (Lucilia cuprina larvae) of 100%.
Molecule O=C(CSCCC(F)=C(F)F)NCc1ccccc1 [Example I-23] has a chromatographic logD [4] of 2.56.
O=C(CSCCC(F)=C(F)F)Nc1ccccn1 [Example I-11] gave a degree of efficacy (Meloidogyne incognita) of 100%.
COC(=O)CSCCC(F)=C(F)F [Example I-20] gave a chromatographic logP [4] of 2.43.
For O=C(O)CNC(=O)CSCCC(F)=C(F)F [Example I-15], the degree of efficacy (Meloidogyne incognita) was 100%.
In the case of CC(NC(=O)CSCCC(F)=C(F)F)C(=O)O (stereo not drawn) [Example I-16], the degree of efficacy (Meloidogyne incognita) is reported as 100%.
With CC(NC(=O)CSCCC(F)=C(F)F)c1ccccc1 (stereo not drawn) [Example I-18] the chromatographic logP [4] was 2.77.
With O=C(CSCCC(F)=C(F)F)Nc1ccc(F)cc1 [Example I-10] the mortality at 0.1 % [5] was 85%.
For CC(C)COC(=O)CSCCC(F)=C(F)F [Example I-21], the chromatographic logP [4] was 3.74.
